According to patent US9546153B2, “Bicyclic heterocycle substituted pyridyl compounds useful as kinase modulators” (BRISTOL-MYERS SQUIBB COMPANY, priority 2012, dated 2017):
Read-outs that look alike come from different tables or passages of the source.

Key:
IRAK4 = IRAK4 (Homo sapiens (Human), UniProt Q9NWZ3); assay: IRAK4 Inhibition Assay; assay type: biochemical; settings: ATP 500 μM; IRAK4 0.6 nM; 60 min at room temperature
Experimental: The assays were performed in U-bottom 384-well plates. […] The reaction was initiated by the combination of IRAK4 with substrates and test compounds. The reaction was incubated at room temperature for 60 min. and terminated by adding 45 μL of 35 mM EDTA to each sample. The reaction mixture was analyzed on the Caliper LABCHIP® 3000 (Caliper, Hopkinton, Mass.) by electrophoretic separation of the fluorescent substrate and phosphorylated product.

[1] = system: TLR2 induced IL-6 in peripheral blood mononuclear cells (PBMCs); assay: PBMC TLR2 Induced IL-6 Assay; assay type: cell-based, human; settings: human PBMCs, 10 μg/ml lipoteichoic acid for 5 hours, IL-6 by ELISA; for IC50: value without asterisk, read-out: Cell IC50; for EC50: EC50 determinations are indicated with an asterisk, read-out: Cell EC50 (asterisk)
Procedure, shortened: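 Human PBMCs (250000 cells/well) in RPMI with 10% heat-inactivated FCS pre-treated with compound for 30 min at 37° C, then stimulated 5 h with 10 μg/ml lipoteichoic acid. Supernatant IL-6 measured by ELISA and reported as IC50 or EC50.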

IRAK4, sequence (Q9NWZ3 whole entry, species assumed): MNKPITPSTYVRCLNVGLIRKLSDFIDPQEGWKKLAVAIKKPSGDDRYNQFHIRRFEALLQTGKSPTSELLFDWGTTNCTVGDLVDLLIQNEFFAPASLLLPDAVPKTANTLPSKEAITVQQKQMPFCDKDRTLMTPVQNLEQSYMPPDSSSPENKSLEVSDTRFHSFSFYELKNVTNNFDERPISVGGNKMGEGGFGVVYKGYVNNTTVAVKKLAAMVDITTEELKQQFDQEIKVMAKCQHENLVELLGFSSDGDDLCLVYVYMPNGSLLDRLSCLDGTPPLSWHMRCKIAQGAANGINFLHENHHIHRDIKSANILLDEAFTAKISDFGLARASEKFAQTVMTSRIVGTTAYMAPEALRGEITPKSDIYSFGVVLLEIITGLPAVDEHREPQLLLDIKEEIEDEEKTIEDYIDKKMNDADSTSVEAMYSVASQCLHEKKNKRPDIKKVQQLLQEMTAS

Row | IC50 (IRAK4) [µM] | SMILES | IC50 ([1]; Homo sapiens, PBMC, 5 h) [µM] | IC50 [1] [µM] | EC50 [1] [µM] | EC50 ([1]; Homo sapiens, PBMC, 5 h) [µM]
1 | 0.0105 | CNC(=O)[C@H]1CC[C@H](NC(=O)c2cnc(Nc3ccc4ncsc4c3)cc2NC(C)C)C1 [Example 221] | 0.462 |  |  | 
2 | 0.0019 | CC(C)(O)[C@H](F)CNC(=O)c1cnc(Nc2ccc3ncsc3n2)cc1NCC(F)(F)F [Example 310] | 0.173 |  |  | 
3 | 0.015 | CC(C)(O)C1CC(Nc2cc(Nc3ccc4ncsc4c3)ncc2C(=O)NC[C@@H](F)C(O)(C2CC2)C(F)(F)F)C1 (stereo partly drawn) [Example 32] | 0.511 |  |  | 
4 | 0.0037 | CC(C)(O)[C@H](F)CNC(=O)c1cnc(Nc2ccc3ncsc3c2)cc1Nc1ccc(OC(F)F)cc1 [Example 51] | 0.334 |  |  | 
5 | 0.0034 | CNC(=O)C12CCC(NC(=O)c3cnc(Nc4ccc5ncsc5c4)cc3NC(C)C)(CC1)CC2 [Example 229] | 0.488 |  |  | 
6 | 0.0071 | CC(C)(O)[C@H](F)CNC(=O)c1cnc(Nc2ccc3nccn3n2)cc1NC1CCOCC1F (stereo partly drawn) [Example 285] | 0.512 |  |  | 
7 | 0.0043 | CCNc1cc(Nc2ccc3ncsc3c2)ncc1C(=O)NC[C@@H](F)C(C)(C)O [Example 96] | 0.17 |  |  | 
8 | 0.0025 | CC(C)(O)[C@H](F)CNC(=O)c1cnc(Nc2nc3ccnn3cc2F)cc1NC1CCC(F)(F)C1 (stereo partly drawn) [Example 391] |  | 0.119 |  | 
9 | 0.0022 | CC(C)(O)[C@H](F)CNC(=O)c1cnc(Nc2ccn3nccc3n2)cc1NC12CCC(O)(CC1)C2 [Example 141] | 0.279 |  |  | 
10 | 0.0034 | CC(C)Nc1cc(Nc2ccc3ncsc3c2)ncc1C(=O)NCC[C@@H](C)NC(=O)CC1CCOCC1 [Example 189] | 0.3 |  |  | 
11 | 0.0114 | Cc1cc(O)ccc1Nc1cc(Nc2ccc3ncsc3c2)ncc1C(=O)NC[C@@H](F)C(C)(C)O [Example 86] | 0.281 |  |  | 
12 | 0.0072 | CC(C)(O)[C@H](F)CNC(=O)c1cnc(Nc2ccc3nonc3c2)cc1NC1CCC1 [Example 98] | 0.165 |  |  | 
13 | 0.0056 | CC(C)(O)[C@H](F)CNC(=O)c1cnc(Nc2ccc3cnccc3n2)cc1NC1CC1 [Example 79] | 0.048 |  |  | 
14 | 0.0065 | CC(CO)Nc1cc(Nc2nc3ccnn3cc2F)ncc1C(=O)NC[C@@H](F)C(C)(C)O (stereo partly drawn) [Example 423] | 0.461 |  |  | 
15 | 0.0357 | CC1COCCC1Nc1cc(Nc2ccc3ncsc3c2)ncc1C(=O)NC[C@@H](F)C(C)(C)O (stereo partly drawn) [Example 232] |  | 0.697 |  | 
16 | 0.0078 | CC(C)(O)[C@H](F)CNC(=O)c1cnc(Nc2ccc3ncccc3n2)cc1NC1CCCC1F (stereo partly drawn) [Example 404] | 1.01 |  |  | 
17 | 0.002 | CC(C)(O)[C@H](F)CNC(=O)c1cnc(Nc2nc3scnc3cc2F)cc1NC1CCCC1F (stereo partly drawn) [Example 461] | 0.147 |  |  | 
18 | 0.0093 | CC(C)Nc1cc(Nc2ccc3ncsc3c2)ncc1C(=O)NC1CCCC(CO)C1 (stereo not drawn) [Example 173] |  | 0.696 |  | 
19 | 0.0036 | CC(C)CNc1cc(Nc2ccc3ncsc3c2)ncc1C(=O)NC[C@@H](F)C(C)(C)O [Example 162] | 0.048 |  |  | 
20 | 0.0028 | CC1(O)CCC(NC(=O)c2cnc(Nc3ccc4ncsc4c3)cc2NC2CC2)CC1 (stereo not drawn) [Example 169, 6-(benzo[d]thiazol-6-ylamino)-4-(cyclopropylamino)-N-(4-hydroxy-4-methylcyclohexyl)nicotinamide] | 0.48 |  |  | 
21 | 0.0094 | CC(=O)N[C@H]1CC[C@H](NC(=O)c2cnc(Nc3nc4ccnn4cc3F)cc2NC2CCOCC2)CC1 [Example 513] | 1.57 |  |  | 

Row | IC50 (IRAK4) [µM] | SMILES | IC50 ([1]; Homo sapiens, PBMC, 5 h) [µM] | IC50 [1] [µM] | EC50 [1] [µM] | EC50 ([1]; Homo sapiens, PBMC, 5 h) [µM]
22 | 0.0051 | CC(C)(O)[C@H](F)CNC(=O)c1cnc(Nc2ccc3nccn3n2)cc1NC1CC1 [Example 85] | 0.195 |  |  | 
23 | 0.0024 | CC(C)Nc1cc(Nc2ccc3ncsc3c2)ncc1C(=O)NCC[C@@H](C)NC(=O)[C@@H]1CCC(F)(F)C1 [Example 186] | 0.361 |  |  | 
24 | 0.0026 | CC(C)(O)[C@H](F)CNC(=O)c1cnc(Nc2ccc3ncsc3c2)cc1NCCC1CC1 [Example 129] | 0.143 |  |  | 
25 | 0.0028 | CC(C)(O)[C@H](F)CNC(=O)c1cnc(Nc2ccc3nccn3n2)cc1NC1CCCC1F (stereo partly drawn) [Example 274] |  | 0.712 |  | 
26 | 0.0025 | CC(C)(O)[C@H](F)CNC(=O)c1cnc(Nc2cc3scnc3cc2F)cc1NC1CCOCC1 [Example 520] | 1.06 |  |  | 
27 | 0.0024 | CC(C)(O)[C@H](F)CNC(=O)c1cnc(Nc2ccc3ncsc3c2)cc1NC1CCCC1(F)F (stereo partly drawn) [Example 358] | 0.048 |  |  | 
28 | 0.0047 | CNC(=O)[C@H]1CC[C@H](NC(=O)c2cnc(Nc3ccc4ncsc4c3)cc2NC2CCC2)CC1 [Example 504] | 0.496 |  |  | 
29 | 0.0056 | CC(C)(O)[C@H](F)CNC(=O)c1cnc(Nc2ccc3ncc(C#N)cc3n2)cc1NC1CCCOC1 (stereo partly drawn) [Example 442] | 0.106 |  |  | 
30 | 0.0037 | CC(Nc1cc(Nc2ccc3ncsc3c2)ncc1C(=O)NC[C@@H](F)C(C)(C)O)C(F)(F)F (stereo partly drawn) [Example 91] | 0.064 |  |  | 
31 | 0.0028 | CC(C)(O)[C@H](F)CNC(=O)c1cnc(Nc2ccc3ncccc3c2)cc1NC1CCCC1(F)F (stereo partly drawn) [Example 360] | 0.073 |  |  | 
32 | 0.0039 | CC(C)(O)[C@H](F)CNC(=O)c1cnc(Nc2ccc3ncsc3c2)cc1N[C@@H](c1cc(F)cc(F)c1)[C@H](O)CO [Example 65] | 0.17 |  |  | 
33 | 0.0063 | CC(C)Nc1cc(Nc2cnc3[nH]ccc3c2)ncc1C(=O)NC[C@@H](F)C(C)(C)O [Example 415] | 0.502 |  |  | 
34 | 0.0085 | CCNC(=O)c1ccc(Nc2cc(Nc3ccc4ncsc4c3)ncc2C(=O)NC[C@@H](F)C(C)(C)O)cc1 [Example 322] | 0.495 |  |  | 
35 | 0.0062 | CC(C)(O)[C@H](F)CNC(=O)c1cnc(Nc2ccn3nccc3c2)cc1NC1CCC(F)C1 (stereo partly drawn) [Example 287] | 0.674 |  |  | 
36 | 0.005 | CC(C)(O)C1CCC(NC(=O)c2cnc(Nc3ccc4ncsc4c3)cc2NC2CCCOC2)CC1 (stereo not drawn) [Example 491] |  |  | 0.281 | 
37 | 0.0047 | CC(C)(F)CNc1cc(Nc2ccn3nccc3c2)ncc1C(=O)NC[C@@H](F)C(C)(C)O [Example 294] | 0.416 |  |  | 
38 | 0.0019 | CC(C)Nc1cc(Nc2ccc3ncsc3n2)ncc1C(=O)NC[C@@H](F)C(C)(C)O [Example 309] | 0.061 |  |  | 
39 | 0.0015 | CNC(=O)[C@H]1CC[C@H](NC(=O)c2cnc(Nc3ccc4ncsc4n3)cc2NC2CCOCC2)CC1 [Example 510] |  |  |  | 0.028
40 | 0.0126 | CC(C)(O)[C@H](F)CNC(=O)c1cnc(Nc2ccc3ncsc3c2)cc1NC12CCC(NS(=O)(=O)c3ccccc3)(CC1)C2 [Example 401] | 0.328 |  |  | 
41 | 0.008 | CC(C)(O)[C@H](F)CNC(=O)c1cnc(Nc2ccc3nccnc3c2)cc1NC1CC1 [Example 82] | 0.366 |  |  | 
42 | 0.0036 | CCC(C)Nc1cc(Nc2ccc3ncsc3c2)ncc1C(=O)NC[C@@H](F)C(C)(C)O (stereo partly drawn) [Example 137] | 0.528 |  |  | 
